Patent US20030114388A1, “Auxiliary agents for ophthalmic operation” (priority 2000, published 2003)

Tested on: intraoperative bleeding in a patient suffering from diabetic retinopathy with increased intrinsic coagulation tendency
Assay: Systemic drip infusion of argatroban during ophthalmic operation in a patient with diabetic retinopathy (Example 1)
Assay type: in vivo
Conditions: one patient
Experimental: The present invention will be more specifically explained by referring to an example. However, as for as within the gist of the present invention, the present invention is not limited to the following example. As argatroban in the following example, a drug commercially available as the tradename “Slonnon” was used.
The patient was a youth suffering from diabetic retinopathy with increased intrinsic coagulation tendency. […] Argatroban 10 mg as one ample was added to a drip infusion (specify ingredients, and a tradename and name of a manufacturing company if commercially available) and systemically administered to the patient from the beginning of the operation. The operation was completed for 2 hours.
The above patient was a youth suffering from diabetic retinopathy with increased intrinsic coagulation tendency, and if treated under an ordinary operation, intraoperative bleedings would have expected to be easy clotting and caused operative difficulties.

[1] = argatroban 10 mg drip infusion during operation

Structure (SMILES): CC1CNc2c(cccc2S(=O)(=O)NC(CCCNC(=N)N)C(=O)N2CCC(C)CC2C(=O)O)C1 (mixture of isomers) [argatroban, (2R,4R)-4-methyl-1-[N^2((RS)-3-methyl-1,2,3,4-tetrahydro-8-quinolinesulfonyl)-L-arginyl]-2-piperidinecarboxylic acid monohydrate]
- abnormal bleeding tendency [1]: No abnormal bleeding tendency was not observed
- ease of treatment of intraoperative bleeding [1]: treatment of intraoperative bleeding became easier
- removal of intraoperative bleedings (argatroban 10 mg drip infusion, passive suction using a back flash needle): successfully removed by passive suction using a back flash needle
- preretinal clotting mass formation from intraoperative bleedings (argatroban 10 mg in drip infusion, systemic, from beginning of operation, 2 hour operation, treatment of fibrous vascular proliferating membrane): all of the bleedings did not give preretinal clotting mass
- intraoperative iatrogenic tear (during treatment of fibrous vascular proliferating membrane, argatroban 10 mg drip infusion): no intraoperative iatrogenic tear was caused
